From patent publication US11155550B2, “Histone deacetylase inhibitors and methods of use thereof” (Reaction Biology Corp., priority 2018, dated 2021) come the findings set out here.

One assay has as its target T1, Human HDAC2 (Homo sapiens, UniProt Q92769).
T1 construct: full-length with a C-terminal His-tag, MW=56 kDa; His-tag (C); made in house; host or cells: baculovirus expression system
Description: Biochemical HDAC enzymatic assay, HDAC2. The following applies: incubation time 120 min. The method, then: (§1) Incubation time for HDAC1/2 is 120 min, and 10 min for other HDACs.
Human HDAC2 (GenBank Accession No. NM_001527), full-length with a C-terminal His-tag, MW=56 kDa, was expressed in a baculovirus expression system.
(§2) • I. Compound handling: Testing compounds were dissolved in 100% DMSO to a specific concentration. The serial dilution was conducted by epMotion 5070 in DMSO. • II. HDAC reaction buffer: 50 mM Tris-HCl, pH8.0, 137 mM NaCl, 2.7 mM KCl, and 1 mM MgCl2, Added fresh: 1 mg/ml BSA, 1% DMSO. • III. Substrate: Fluorogenic HDAC General Substrate for HDAC1, 2, 3, 6, 10, 11 ans Sirt1, 2 and 3: Arg-His-Lys-Lys(Ac); HDAC8 only substrate: Arg-His-Lys(Ac)-Lys(Ac); Class2A Substrate (HDAC4, 5, 7 and 9): Acetyl-Lys(trifluoroacetyl)-AMC; Sirt5 substrate: Ac-Lys(succinyl)-AMC. • IV. General Reaction Procedure: (Standard IC50 determination) • a. Delivered 2× enzyme in wells of reaction plate except No Enzyme (No En) control wells. Add buffer in No En wells. • b. Delivered compounds in 100% DMSO into the enzyme mixture by Acoustic technology (Echo550; nanoliter range). Spin down and pre-incubation. • c. Delivered 2× Substrate Mixture (Fluorogenic HDAC Substrate and co-factor (500 μM of Nicotinamide adenine dinucleotide (NAD^+) in all Sirt assay) in all reaction wells to initiate the reaction. Spin and shake. • d. Incubated for 1-2 hr. at 30° C. with seal. • e. Added Developer with Trichostatin A (or TMP269 or NAD^+) to stop the reaction and to generate fluorescent color. • f. Fluorescence was read (excitatory, 360; emission, 460) using the EnVision Multilabel Plate Reader (Perkin Elmer) • g. Endpoint reading was taken for analysis after the development reaches plateau. • V. Data Analysis: The percentages of enzyme activity (relative to DMSO controls) and IC50 values were calculated using the GraphPad Prism 4 program based on a sigmoidal dose-response equation.
(§3) The inhibitory activities of HDAC of compounds of the invention were determined using biochemical HDAC assays. Compounds were tested at the indicated doses in the biochemical assays of HDAC1, HDAC2, HDAC3, HDAC4, HDAC5, HDAC6, HDAC7, HDAC8, HDAC9, HDAC10, or HDAC11 enzyme. The curve fit and IC50 values were calculated using the GraphPad Prism 4 program based on a sigmoidal dose-response equation.
as §2, with “[…]” for “μM”, “equation. […]” for “equation.”

In a further assay the target is T2, Human HDAC1 (Homo sapiens, UniProt Q13547).
T2 construct: full-length with a C-terminal His-tag and a C-terminal FLAG-tag; His-tag (C); FLAG-tag (C); made in house; host or cells: baculovirus expression system
T2 sequence (Q13547 whole entry): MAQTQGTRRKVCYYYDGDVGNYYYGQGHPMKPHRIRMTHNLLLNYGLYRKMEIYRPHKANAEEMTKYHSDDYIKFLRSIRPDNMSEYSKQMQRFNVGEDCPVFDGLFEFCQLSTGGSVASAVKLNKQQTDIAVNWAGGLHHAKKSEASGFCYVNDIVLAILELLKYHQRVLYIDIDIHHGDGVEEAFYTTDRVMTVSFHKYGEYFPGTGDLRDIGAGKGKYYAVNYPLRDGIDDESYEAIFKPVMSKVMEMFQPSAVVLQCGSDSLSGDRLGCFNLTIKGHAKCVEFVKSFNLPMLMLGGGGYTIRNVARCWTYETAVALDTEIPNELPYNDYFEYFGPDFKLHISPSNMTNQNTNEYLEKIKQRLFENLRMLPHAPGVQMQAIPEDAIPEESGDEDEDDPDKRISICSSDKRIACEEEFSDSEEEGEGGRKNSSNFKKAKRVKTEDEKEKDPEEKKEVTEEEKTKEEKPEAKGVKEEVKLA
Description: Biochemical HDAC enzymatic assay, HDAC1. The following applies: incubation time 120 min. As for the experimental part: as §1
Human HDAC1 (GenBank Accession No. NM_004964), full-length with a C-terminal His-tag and a C-terminal FLAG-tag, MW=56 kDa, was expressed in a baculovirus expression system.
as §2, §3
as §2, with “[…]” for “μM”, “equation. […]” for “equation.”

Assay [1] concerns the target T3, Complex of human HDAC3 and human NCOR2 (Homo sapiens, UniProt O15379).
T3 construct: full-length with a C-terminal His tag, MW=49.7 kDa; His tag (C); made in house; host or cells: baculovirus expression system
Description: Biochemical HDAC enzymatic assay, HDAC3. The following applies: incubation time 10 min. The method, then:
as §1
Complex of human HDAC3 (GenBank Accession No. NM_003883), full-length with a C-terminal His tag, MW=49.7 kDa, and human NCOR2 (amino acid 395-489) (GenBank Accession No. NM_006312), N-terminal GST tag, MW=37.6 kDa, was co-expressed in a baculovirus expression system.
as §2, §3
• I. Compound handling: Testing compounds were dissolved in 100% DMSO to a specific concentration. The serial dilution was conducted by epMotion 5070 in DMSO. • II. HDAC reaction buffer: 50 mM Tris-HCl, pH8.0, 137 mM NaCl, 2.7 mM KCl, and 1 mM MgCl2, Added fresh: 1 mg/ml BSA, 1% DMSO. • III. Substrate: Fluorogenic HDAC General Substrate for HDAC1, 2, 3, 6, 10, 11 ans Sirt1, 2 and 3: Arg-His-Lys-Lys(Ac); HDAC8 only substrate: Arg-His-Lys(Ac)-Lys(Ac); Class2A Substrate (HDAC4, 5, 7 and 9): Acetyl-Lys(trifluoroacetyl)-AMC; Sirt5 substrate: Ac-Lys(succinyl)-AMC. • IV. General Reaction Procedure: (Standard IC50 determination) • a. Delivered 2× enzyme in wells of reaction plate except No Enzyme (No En) control wells. Add buffer in No En wells. • b. Delivered compounds in 100% DMSO into the enzyme mixture by Acoustic technology (Echo550; nanoliter range). Spin down and pre-incubation. • c. […]

T3 sequence (O15379 whole entry): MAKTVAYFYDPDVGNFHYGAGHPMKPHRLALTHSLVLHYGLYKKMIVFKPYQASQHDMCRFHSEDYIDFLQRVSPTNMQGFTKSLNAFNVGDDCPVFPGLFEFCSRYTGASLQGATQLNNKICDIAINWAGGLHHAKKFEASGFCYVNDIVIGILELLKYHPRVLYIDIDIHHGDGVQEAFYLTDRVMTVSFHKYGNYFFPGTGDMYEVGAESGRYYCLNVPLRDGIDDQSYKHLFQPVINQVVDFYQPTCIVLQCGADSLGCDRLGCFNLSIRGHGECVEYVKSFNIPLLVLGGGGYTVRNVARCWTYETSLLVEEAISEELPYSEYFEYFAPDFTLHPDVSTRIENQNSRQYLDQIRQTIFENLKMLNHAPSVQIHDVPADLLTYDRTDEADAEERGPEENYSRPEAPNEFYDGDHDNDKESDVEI
T3 sequence (Q9Y618 395-489 partner limits assumed): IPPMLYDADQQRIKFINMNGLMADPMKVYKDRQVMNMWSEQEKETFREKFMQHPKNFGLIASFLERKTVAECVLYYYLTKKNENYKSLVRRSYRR
T1 sequence (Q92769 whole entry): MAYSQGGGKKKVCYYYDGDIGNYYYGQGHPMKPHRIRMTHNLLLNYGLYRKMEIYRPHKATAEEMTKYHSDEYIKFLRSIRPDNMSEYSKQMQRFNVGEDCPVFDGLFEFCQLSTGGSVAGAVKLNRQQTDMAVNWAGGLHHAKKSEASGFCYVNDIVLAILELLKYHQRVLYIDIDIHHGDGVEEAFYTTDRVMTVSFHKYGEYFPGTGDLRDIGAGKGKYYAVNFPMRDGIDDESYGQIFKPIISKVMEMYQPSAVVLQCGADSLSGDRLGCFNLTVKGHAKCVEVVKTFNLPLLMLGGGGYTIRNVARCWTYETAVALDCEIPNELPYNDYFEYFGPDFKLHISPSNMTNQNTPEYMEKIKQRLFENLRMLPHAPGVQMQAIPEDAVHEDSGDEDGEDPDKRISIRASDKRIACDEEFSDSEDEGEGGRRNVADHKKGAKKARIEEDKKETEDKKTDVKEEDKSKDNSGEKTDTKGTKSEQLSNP

As a reminder, the IC50 is the midpoint of a concentration-inhibition curve. Higher therefore signals a need for much substance. As for `O=C(NO)c1ccc(CN2C(=O)c3ccccc3C23CCN(C2CC2)CC3)cc1` [Compound Example 12, 4-((1′-cyclopropyl-3-oxospiro[isoindoline-1,4′-piperidin]-2-yl)methyl)-N-hydroxybenzamide], the half-inhibitory concentration (IC50) at Human HDAC2 (Table 2) was > 10 µM; on Human HDAC1 (Table 2) it was > 10 µM; in assay [1] (Table 2), 9.26 µM.
With `Nc1cc(F)ccc1NC(=O)c1ccc(CN2C(=O)CCCC23CNC3)cc1` [Example 3, N-(2-amino-4-fluorophenyl)-4-((6-oxo-2,5-diazaspiro[3.5]nonan-5-yl)methyl)benzamide], the 50% inhibitory concentration (IC50) against Human HDAC2 (Table 1) came out at 11.8 µM; at Human HDAC1 (Table 1), 20 µM; in assay [1] (Table 1), 1.9 µM.
With `O=C(NO)c1ccc(CN2C(=O)c3ccccc3C23OCCO3)cc1` [Compound Example 8, N-hydroxy-4-((3-oxospiro[isoindoline-1,2′-[1,3]dioxolan]-2-yl)methyl)benzamide], the IC50 is > 10 µM against Human HDAC2 (Table 2), 8 µM at Human HDAC1 (Table 2) and > 10 µM in assay [1] (Table 2).
For the compound `Nc1ccc(-c2ccc(F)cc2)cc1NC(=O)c1ccc(N2CC3(CCOCC3)OC2=O)nc1` [Example 5, N-(4-amino-4′-fluoro-[1,1′-biphenyl]-3-yl)-6-(2-oxo-1,8-dioxa-3-azaspiro[4.5]decan-3-yl)nicotinamide], the IC50 at Human HDAC2 (Table 1) is 0.115 µM; on Human HDAC1 (Table 1), 0.023 µM; in assay [1] (Table 1), > 20 µM.
On to `Nc1ccc(-c2cccs2)cc1NC(=O)c1ccc(N2CC3(CCNCC3)CCC2=O)nc1` [Example 6, N-(2-amino-5-(thiophen-2-yl)phenyl)-6-(3-oxo-2,9-diazaspiro[5.5]undecan-2-yl)nicotinamide], for which the IC50 against Human HDAC2 (Table 1) was 0.61 µM; against Human HDAC1 (Table 1), 0.085 µM; in assay [1] (Table 1) it was > 20 µM.
`O=C(NO)c1ccc(CN2C(=O)C3(CCOC3)c3ccccc32)cc1` (stereo not drawn) [Compound Example 9]: the IC50 against Human HDAC2 (Table 2) is 17.2 µM; against Human HDAC1 (Table 2), 9.1 µM; in assay [1] (Table 2) it was 21 µM.
For the compound `CN1CCC2(CC1)CN(c1ccc(C(=O)Nc3cc(-c4cccs4)ccc3N)cn1)C(=O)O2` [Example 4, N-(2-amino-5-(thiophen-2-yl)phenyl)-6-(8-methyl-2-oxo-1-oxa-3,8-diazaspiro[4.5]decan-3-yl)nicotinamide], the IC50 came to 0.064 µM against Human HDAC2 (Table 1), 0.007 µM at Human HDAC1 (Table 1) and 17.4 µM in assay [1] (Table 1).
For the compound `CN(C)C(=O)N1CCC2(CC1)c1ccccc1C(=O)N2Cc1ccc(C(=O)NO)cc1` [Compound Example 11, 2-(4-(hydroxycarbamoyl)benzyl)-N,N-dimethyl-3-oxospiro[isoindoline-1,4′-piperidine]-1′-carboxamide], the half-inhibitory concentration (IC50) (against Human HDAC2 (Table 2); at Human HDAC1 (Table 2); in assay [1] (Table 2)) was > 10 µM each time.
In the case of `O=C(NO)c1ccc(CN2C(=O)c3ccccc3C23CCNCC3)cc1` [Compound Example 10, N-hydroxy-4-((3-oxospiro[isoindoline-1,4′-piperidin]-2-yl)methyl)benzamide], the IC50 against Human HDAC2 (Table 2) was > 10 µM; against Human HDAC1 (Table 2) it was 6 µM; in assay [1] (Table 2), 7 µM.
As for `Nc1ccc(-c2cccs2)cc1NC(=O)c1ccc(CN2C(=O)CCC23CCNCC3)cc1` [Example 2, N-(2-amino-5-(thiophen-2-yl)phenyl)-4-((2-oxo-1,8-diazaspiro[4.5]decan-1-yl)methyl)benzamide], the 50% inhibitory concentration (IC50) on Human HDAC2 (Table 1) was 0.146 µM; at Human HDAC1 (Table 1), 0.014 µM; in assay [1] (Table 1) it was > 20 µM.
In the same order, the values of `Nc1ccc(-c2cccs2)cc1NC(=O)c1ccc(CN2C(=O)CCCC23CNC3)cc1` [Example 1, N-(2-amino-5-(thiophen-2-yl)phenyl)-4-((6-oxo-2,5-diazaspiro[3.5]nonan-5-yl)methyl)benzamide] are 0.06 µM, 0.006 µM and 13 µM.
